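96-well plates; 48 h exposure; 5 concentrations. Endpoints by linear interpolation between flanking doses. Not reached: highest tested concentration assigned. Here, GI50 denotes the concentration required for 50% inhibition of growth.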 Activity calls are given as the source filed them. Cut-off read from the data, not from the text of the source: active = GI50 up to about 1.1 µM and inactive = higher.
Tests used:
Assay in all cases: NCI tumour cell line growth inhibition, 48 h
SK-MEL-2 = test system: SK-MEL-2
UACC-257 = test system: UACC-257
SK-MEL-28 = test system: SK-MEL-28
MOLT-4 = test system: MOLT-4
PC-3 = test system: PC-3
OVCAR-8 = test system: OVCAR-8
SK-MEL-5 = test system: SK-MEL-5
MDA-MB-231 = test system: MDA-MB-231
RPMI-8226 = test system: RPMI-8226
HCT-116 = test system: HCT-116
U-251 = test system: U-251
HT-29 = test system: HT-29
SW-620 = test system: SW-620
MDA-MB-435 = test system: MDA-MB-435
SNB-19 = test system: SNB-19
T47D = test system: T47D
EKVX = test system: EKVX
NCI-H23 = test system: NCI-H23
SF-295 = test system: SF-295

N#CC(C#N)=NNc1ccc2cn[nH]c2c1
GI50 (SK-MEL-2): > 100 µM (inactive) | GI50 (UACC-257): 20.4 µM (inactive) | GI50 (SK-MEL-28): > 100 µM (inactive) | GI50 (MOLT-4): 21.5 µM (inactive) | GI50 (PC-3): > 100 µM (inactive) | GI50 (OVCAR-8): 51.4 µM (inactive) | GI50 (SK-MEL-5): 74.5 µM (inactive) | GI50 (MDA-MB-231): > 100 µM (inactive) | GI50 (RPMI-8226): 26.2 µM (inactive) | GI50 (HCT-116): 20.5 µM (inactive) | GI50 (U-251): > 100 µM (inactive) | GI50 (HT-29): 91.2 µM (inactive) | GI50 (SW-620): 41.1 µM (inactive) | GI50 (MDA-MB-435): 34.3 µM (inactive) | GI50 (SNB-19): > 100 µM (inactive) | GI50 (T47D): 35.7 µM (inactive) | GI50 (EKVX): 47.3 µM (inactive) | GI50 (NCI-H23): 19.1 µM (inactive) | GI50 (SF-295): > 100 µM (inactive)

NS(=O)(=O)c1c(O)c2ccccc2oc1=O
GI50 (SK-MEL-2): > 100 µM (inactive) | GI50 (UACC-257): > 100 µM (inactive) | GI50 (SK-MEL-28): > 100 µM (inactive) | GI50 (MOLT-4): > 100 µM (inactive) | GI50 (PC-3): > 100 µM (inactive) | GI50 (OVCAR-8): > 100 µM (inactive) | GI50 (SK-MEL-5): > 100 µM (inactive) | GI50 (MDA-MB-231): > 100 µM (inactive) | GI50 (RPMI-8226): > 100 µM (inactive) | GI50 (HCT-116): > 100 µM (inactive) | GI50 (U-251): > 100 µM (inactive) | GI50 (HT-29): > 100 µM (inactive) | GI50 (SW-620): > 100 µM (inactive) | GI50 (MDA-MB-435): > 100 µM (inactive) | GI50 (SNB-19): > 100 µM (inactive) | GI50 (T47D): > 100 µM (inactive) | GI50 (EKVX): > 100 µM (inactive) | GI50 (NCI-H23): > 100 µM (inactive) | GI50 (SF-295): > 100 µM (inactive)

O=C1/C(=C\c2cccc(Oc3ccccc3)c2)SC(c2ccccc2)N1c1ccc(Cl)cc1 (stereo not drawn)
GI50 (SK-MEL-2): > 47.5 µM (inactive) | GI50 (UACC-257): 41.9 µM (inactive) | GI50 (SK-MEL-28): 64.9 µM (inactive) | GI50 (MOLT-4): 20.4 µM (inactive) | GI50 (PC-3): 63.2 µM (inactive) | GI50 (OVCAR-8): 32.9 µM (inactive) | GI50 (SK-MEL-5): 4.79 µM (inactive) | GI50 (MDA-MB-231): > 64.6 µM (inactive) | GI50 (RPMI-8226): 5.78 µM (inactive) | GI50 (HCT-116): 10.3 µM (inactive) | GI50 (U-251): 50.5 µM (inactive) | GI50 (HT-29): 30.8 µM (inactive) | GI50 (SW-620): 27.7 µM (inactive) | GI50 (MDA-MB-435): 2.24 µM (inactive) | GI50 (SNB-19): 59.4 µM (inactive) | GI50 (T47D): 5.37 µM (inactive) | GI50 (EKVX): 80.7 µM (inactive) | GI50 (NCI-H23): 15.8 µM (inactive) | GI50 (SF-295): 7.11 µM (inactive)

CCOC(=O)[C@@H]1C2C(=C[C@H]3[C@H]1C(=O)N1CCCC[C@H]31)CCCN2C(=O)OCc1ccccc1 (stereo partly drawn)
GI50 (SK-MEL-2): 22.8 µM (inactive) | GI50 (UACC-257): 37.6 µM (inactive) | GI50 (SK-MEL-28): 59.7 µM (inactive) | GI50 (MOLT-4): 14.3 µM (inactive) | GI50 (PC-3): 28.1 µM (inactive) | GI50 (OVCAR-8): 35.5 µM (inactive) | GI50 (SK-MEL-5): 31.6 µM (inactive) | GI50 (MDA-MB-231): > 100 µM (inactive) | GI50 (RPMI-8226): 20.2 µM (inactive) | GI50 (HCT-116): 35.6 µM (inactive) | GI50 (U-251): 43.6 µM (inactive) | GI50 (HT-29): 30.3 µM (inactive) | GI50 (SW-620): 52.2 µM (inactive) | GI50 (MDA-MB-435): 35 µM (inactive) | GI50 (SNB-19): > 100 µM (inactive) | GI50 (T47D): 29.3 µM (inactive) | GI50 (EKVX): 38.3 µM (inactive) | GI50 (NCI-H23): 29.3 µM (inactive) | GI50 (SF-295): 32.5 µM (inactive)

CN1C(=O)C23CC4=CC=CC(O)C4N2C(=O)C1(CO)SS3 (stereo not drawn)
GI50 (SK-MEL-2): 0.22 µM (active) | GI50 (UACC-257): 0.299 µM (active) | GI50 (SK-MEL-28): 0.507 µM (active) | GI50 (MOLT-4): 0.134 µM (active) | GI50 (PC-3): 0.167 µM (active) | GI50 (OVCAR-8): 0.0611 µM (active) | GI50 (SK-MEL-5): 0.173 µM (active) | GI50 (MDA-MB-231): 0.199 µM (active) | GI50 (RPMI-8226): 0.163 µM (active) | GI50 (HCT-116): 0.107 µM (active) | GI50 (U-251): 0.153 µM (active) | GI50 (HT-29): 0.0188 µM (active) | GI50 (SW-620): 0.237 µM (active) | GI50 (MDA-MB-435): 0.224 µM (active) | GI50 (SNB-19): 0.553 µM (active) | GI50 (T47D): 0.183 µM (active) | GI50 (EKVX): 0.368 µM (active) | GI50 (NCI-H23): 0.167 µM (active) | GI50 (SF-295): 0.181 µM (active)

Clc1ccc(-c2nn3c(CCCCCCCCc4nnc5sc(-c6ccc(Cl)cc6)nn45)nnc3s2)cc1
GI50 (SK-MEL-2): 29.8 µM (inactive) | GI50 (UACC-257): 12.3 µM (inactive) | GI50 (SK-MEL-28): 23.6 µM (inactive) | GI50 (MOLT-4): 7.69 µM (inactive) | GI50 (PC-3): 11.5 µM (inactive) | GI50 (OVCAR-8): 18.7 µM (inactive) | GI50 (SK-MEL-5): 13.8 µM (inactive) | GI50 (MDA-MB-231): 27 µM (inactive) | GI50 (RPMI-8226): 10.3 µM (inactive) | GI50 (HCT-116): 15.9 µM (inactive) | GI50 (U-251): 15.9 µM (inactive) | GI50 (HT-29): 12.4 µM (inactive) | GI50 (SW-620): 29.2 µM (inactive) | GI50 (MDA-MB-435): 17 µM (inactive) | GI50 (SNB-19): 20.6 µM (inactive) | GI50 (T47D): 4.67 µM (inactive) | GI50 (EKVX): 20 µM (inactive) | GI50 (NCI-H23): 27.1 µM (inactive) | GI50 (SF-295): 17.6 µM (inactive)

CC1=NN(c2nc(N)nc(/C(C#N)=C/c3ccncc3)n2)C(C)(C)C1
GI50 (SK-MEL-2): > 100 µM (inactive) | GI50 (UACC-257): > 100 µM (inactive) | GI50 (SK-MEL-28): > 100 µM (inactive) | GI50 (MOLT-4): > 100 µM (inactive) | GI50 (PC-3): > 100 µM (inactive) | GI50 (OVCAR-8): > 100 µM (inactive) | GI50 (SK-MEL-5): > 100 µM (inactive) | GI50 (MDA-MB-231): > 100 µM (inactive) | GI50 (RPMI-8226): > 100 µM (inactive) | GI50 (HCT-116): > 100 µM (inactive) | GI50 (U-251): > 100 µM (inactive) | GI50 (HT-29): > 100 µM (inactive) | GI50 (SW-620): > 100 µM (inactive) | GI50 (MDA-MB-435): > 100 µM (inactive) | GI50 (SNB-19): > 100 µM (inactive) | GI50 (T47D): > 100 µM (inactive) | GI50 (EKVX): > 100 µM (inactive) | GI50 (NCI-H23): > 100 µM (inactive) | GI50 (SF-295): > 100 µM (inactive)

From ChEMBL document CHEMBL1201862, “PubChem BioAssay data set” (2004)
